According to patent publication US10829798B2, “DNA-linked enzyme-coupled assays” (THE REGENTS OF THE UNIVERSITY OF CALIFORNIA, priority 2014, dated 2020):

Target: T1, OleD (Streptomyces antibioticus, UniProt Q53685, P55A/R82V/R83E/T84P)
T1 construct: made in house; host or cells: PURExpress In Vitro Protein Synthesis Kit (NEB E6800L), cell-free transcription/translation, linear DNA with T7 promoter
Experiment: DLEnCA with purified recombinant OleD, agarose gel readout of MfeI digestion of probe DNA
Format: biochemical
Details: purified OleD 0.5 μM, acceptor 0.5 mM, 2% agarose gel
Method: FIG. 2A-FIG. 2D. DNA-Linked Enzyme-Coupled Assay using purified model enzyme (OleD). A. The OleD-catalyzed glucosylation of kaempferol using UDP-Glc as a donor-molecule. B. Purified recombinant OleD (0.5 μM) was incubated with probe DNA (4.5 nM) in the presence of kaempferol (0.5 mM) and various concentrations of UDP-Glc at 37° C. for 1 hour. Following incubation with TbGT, DNA was digested with MfeI. Digests were analyzed on a 2% agarose gel. […] (ii) A representative gel of the UDP-Glc titration reaction, as-well-as a “ladder” depicting expected DNA digestion sizes, is shown. C. […] Digests were analyzed on a 2% agarose gel (n=4). […] Digests were analyzed on a 2% agarose gel (n=4). […]
In order to verify that DNA protection using TbGT could be used to follow an enzymatic reaction under conditions amenable to downstream DNA analyses, the ability of recombinant OleD to reduce concentrations of UDP-Glc while in the presence of the substrate kaempferol was first tested. […] To identify if this reaction could be monitored by modification of DNA, recombinant OleD was purified (FIG. 5) and incubated with 5-hm-cytosine-modified probe DNA (4.5 nM probe DNA containing 2.5 μM modified 5-hm-cytosines), kaempferol (0.5 mM), and UDP-Glc concentrations varying from 10 μM to 1 mM in a buffered solution. […]

T1 sequence (Q53685 other isoform, or with tags, fused parts or gaps P55A/R82V/R83E/T84P): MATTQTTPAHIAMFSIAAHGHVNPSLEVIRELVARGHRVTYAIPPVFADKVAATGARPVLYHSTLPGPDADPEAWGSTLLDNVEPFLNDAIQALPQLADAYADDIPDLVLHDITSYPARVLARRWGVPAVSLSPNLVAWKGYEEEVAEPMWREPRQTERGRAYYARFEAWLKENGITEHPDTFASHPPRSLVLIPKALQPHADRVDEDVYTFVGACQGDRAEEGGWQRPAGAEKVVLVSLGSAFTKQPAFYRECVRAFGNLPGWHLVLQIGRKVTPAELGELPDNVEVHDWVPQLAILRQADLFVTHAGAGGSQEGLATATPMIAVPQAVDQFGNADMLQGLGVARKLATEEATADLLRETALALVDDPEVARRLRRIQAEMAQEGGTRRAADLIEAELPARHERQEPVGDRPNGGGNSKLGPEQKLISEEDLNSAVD

SMILES | digestion of probe DNA by MfeI (loss of TbGT protection) (20 μM starting UDP-Glc, all components present) | digestion of probe DNA by MfeI (loss of TbGT protection) (UDP-Glc titration)
O=c1c(O)c(-c2ccc(O)cc2)oc2cc(O)cc(O)c12 [I, kaempferol] | significant DNA digestion occurred | –
O=C(O)c1ccc(O)cc1 [XI, 4-hydroxybenzoic acid] | – | no DNA was digested
